Laboratory results from patent publication US5202315A, “Cephalosporin compounds” (Lucky, Ltd., priority 1989, dated 1993).
≈ marks a conversion by molar mass, not a printed value.

Tests used:
Test in all cases: Antibacterial activity, MIC
Format in all cases: cell-based
[1] = test system: Acinetobacter calcoaceticus ATCC 15473; conditions: ATCC15473, ATCC 15473, agar two-fold dilution, 37° C., 20 hours, read-out: MIC
Outline: (§1)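 Values reflect agar dilution testing: Mueller-Hinton medium, two-fold compound series, 2 μl inoculum of 10^7 CFU/ml, 20 h incubation at 37 °C.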

[2] = test system: Bacillus cereus ATCC 11778; conditions: ATCC11778, ATCC 11778, agar two-fold dilution, 37° C., 20 hours, read-out: MIC
Outline: as §1

[3] = test system: Bacillus megaterium ATCC 9885; conditions: Priestia megaterium, ATCC9885; ATCC 9885; agar two-fold dilution, 37° C., 20 hours; read-out: MIC
Outline: as §1

[4] = test system: Citrobacter freundii ATCC 8090; conditions: ATCC8090, ATCC 8090, agar two-fold dilution, 37° C., 20 hours, read-out: MIC
Outline: as §1

[5] = test system: Enterobacter aerogenes ATCC 29751; conditions: Klebsiella aerogenes, ATCC29751; ATCC 29751; agar two-fold dilution, 37° C., 20 hours; read-out: MIC
Outline: as §1

[6] = test system: Enterobacter cloacae ATCC 27508; conditions: ATCC27508, ATCC 27508, agar two-fold dilution, 37° C., 20 hours, read-out: MIC
Outline: as §1

[7] = test system: Escherichia coli ATCC 10536; conditions: ATCC10536, agar two-fold dilution, 37° C., 20 hours
Outline: as §1

[8] = test system: Escherichia coli ATCC 25922; conditions: ATCC25922, agar two-fold dilution, 37° C., 20 hours
Outline: as §1

[9] = test system: Klebsiella pneumoniae ATCC 10031; conditions: ATCC10031, ATCC 10031, agar two-fold dilution, 37° C., 20 hours, read-out: MIC
Outline: as §1

[10] = test system: Micrococcus luteus ATCC 9341; conditions: ATCC9341, ATCC 9341, agar two-fold dilution, 37° C., 20 hours, read-out: MIC
Outline: as §1

[11] = test system: Morganella morganii ATCC 8076h; conditions: ATCC8076H, agar two-fold dilution, 37° C., 20 hours
Outline: as §1

[12] = test system: Proteus mirabilis ATCC 25933; conditions: ATCC25933, ATCC 25933, agar two-fold dilution, 37° C., 20 hours, read-out: MIC
Outline: as §1

[13] = test system: Proteus vulgaris ATCC 6059; conditions: ATCC6059, ATCC 6059, agar two-fold dilution, 37° C., 20 hours, read-out: MIC
Outline: as §1

[14] = test system: Providencia rettgeri ATCC 9250; conditions: ATCC9250, agar two-fold dilution, 37° C., 20 hours
Outline: as §1

[15] = test system: Pseudomonas aeruginosa ATCC 10145; conditions: ATCC10145, ATCC 10145, agar two-fold dilution, 37° C., 20 hours, read-out: MIC
Outline: as §1

[16] = test system: Pseudomonas aeruginosa ATCC 25619; conditions: ATCC25619, ATCC 25619, agar two-fold dilution, 37° C., 20 hours, read-out: MIC
Outline: as §1

[17] = test system: Pseudomonas aeruginosa ATCC 27853; conditions: ATCC27853, ATCC 27853, agar two-fold dilution, 37° C., 20 hours, read-out: MIC
Outline: as §1

[18] = test system: Salmonella typhimurium ATCC 14028; conditions: Salmonella enterica; ATCC 14028; agar two-fold dilution, 37° C., 20 hours; read-out: MIC
Outline: as §1

[19] = test system: Serratia marcescens ATCC 27117; conditions: ATCC27117, ATCC 27117, agar two-fold dilution, 37° C., 20 hours, read-out: MIC
Outline: as §1

[20] = test system: Shigella flexneri ATCC 11836; conditions: ATCC11836, agar two-fold dilution, 37° C., 20 hours
Outline: as §1

[21] = test system: Shigella sonnei ATCC 11060; conditions: ATCC11060, ATCC 11060, agar two-fold dilution, 37° C., 20 hours, read-out: MIC
Outline: as §1

[22] = test system: Staphylococcus aureus ATCC 10537; conditions: ATCC10537, ATCC 10537, agar two-fold dilution, 37° C., 20 hours, read-out: MIC
Outline: as §1

[23] = test system: Staphylococcus aureus ATCC 6538p; conditions: ATCC6538P, ATCC 6538p, agar two-fold dilution, 37° C., 20 hours, read-out: MIC
Outline: as §1

[24] = test system: Staphylococcus epidermidis ATCC 12228; conditions: ATCC12228, ATCC 12228, agar two-fold dilution, 37° C., 20 hours, read-out: MIC
Outline: as §1

[25] = test system: Streptococcus faecalis ATCC 29212; conditions: Enterococcus faecalis, ATCC29212; ATCC 29212; agar two-fold dilution, 37° C., 20 hours; read-out: MIC
Outline: as §1

| SMILES | MIC [1] [µg/mL] | MIC [2] [µg/mL] | MIC [3] [µg/mL] | MIC [4] [µg/mL] | MIC [5] [µg/mL] | MIC [6] [µg/mL] | MIC [7] [µg/mL] | MIC [8] [µg/mL] | MIC [9] [µg/mL] | MIC [10] [µg/mL] | MIC [11] [µg/mL] | MIC [12] [µg/mL] | MIC [13] [µg/mL] | MIC [14] [µg/mL] | MIC [15] [µg/mL] | MIC [16] [µg/mL] | MIC [17] [µg/mL] | MIC [18] [µg/mL] | MIC [19] [µg/mL] | MIC [20] [µg/mL] | also measured |
| --- | --- | --- | --- | --- | --- | --- | --- | --- | --- | --- | --- | --- | --- | --- | --- | --- | --- | --- | --- | --- | --- |
| CCC[n+]1c(N)cc(N)nc1SCC1=C(C(=O)[O-])N2C(=O)C(NC(=O)/C(=N\OCC)c3nsc(N)n3)C2SC1 (stereo not drawn) [Compound I-22] | 4 (≈ 6.73 µM) | 16 (≈ 26.9 µM) | 0.13 (≈ 0.219 µM) | 0.25 (≈ 0.42 µM) | 1 (≈ 1.68 µM) | 0.031 (≈ 0.0521 µM) | 0.25 (≈ 0.42 µM) | 0.25 (≈ 0.42 µM) | 0.016 (≈ 0.0269 µM) | 0.016 (≈ 0.0269 µM) | 0.031 (≈ 0.0521 µM) | 2 (≈ 3.36 µM) | 2 (≈ 3.36 µM) | ≤ 0.008 | 16 (≈ 26.9 µM) | 1 (≈ 1.68 µM) | 4 (≈ 6.73 µM) | 2 (≈ 3.36 µM) | 0.5 (≈ 0.841 µM) | 0.13 (≈ 0.219 µM) | MIC [21]: 0.5 µg/mL (≈ 0.841 µM); MIC [22]: 0.5 µg/mL (≈ 0.841 µM); MIC [23]: 0.5 µg/mL (≈ 0.841 µM); MIC [24]: 0.25 µg/mL (≈ 0.42 µM); MIC [25]: 16 µg/mL (≈ 26.9 µM) |
| C[n+]1c(N)cc(N)nc1SCC1=C(C(=O)[O-])N2C(=O)C(NC(=O)/C(=N\OC(C)(C)C(=O)O)c3nsc(N)n3)C2SC1 (stereo not drawn) [Compound I-26] | 4 (≈ 6.4 µM) | > 128 | 1 (≈ 1.6 µM) | 0.13 (≈ 0.208 µM) | 1 (≈ 1.6 µM) | 0.031 (≈ 0.0496 µM) | 0.13 (≈ 0.208 µM) | 0.13 (≈ 0.208 µM) | 0.13 (≈ 0.208 µM) | 1 (≈ 1.6 µM) | ≤ 0.008 | 0.13 (≈ 0.208 µM) | 0.13 (≈ 0.208 µM) | ≤ 0.008 | 2 (≈ 3.2 µM) | 2 (≈ 3.2 µM) | 2 (≈ 3.2 µM) | 0.5 (≈ 0.8 µM) | 0.25 (≈ 0.4 µM) | 0.063 (≈ 0.101 µM) | MIC [21]: 0.13 µg/mL (≈ 0.208 µM); MIC [22]: 8 µg/mL (≈ 12.8 µM); MIC [23]: 8 µg/mL (≈ 12.8 µM); MIC [24]: 4 µg/mL (≈ 6.4 µM); MIC [25]: > 128 µg/mL |
| CC(C)(O/N=C(\C(=O)NC1C(=O)N2C(C(=O)[O-])=C(CSc3nc(N)cc(N)[n+]3-c3ccccc3)CSC12)c1csc(N)n1)C(=O)O (stereo not drawn) [Compound I-35] | 16 (≈ 23.3 µM) | 16 (≈ 23.3 µM) | 0.5 (≈ 0.729 µM) | 0.25 (≈ 0.365 µM) | 0.5 (≈ 0.729 µM) | 0.063 (≈ 0.0919 µM) | 0.25 (≈ 0.365 µM) | 0.25 (≈ 0.365 µM) | 0.13 (≈ 0.19 µM) | 0.25 (≈ 0.365 µM) | ≤ 0.008 | 0.25 (≈ 0.365 µM) | 0.13 (≈ 0.19 µM) | 0.031 (≈ 0.0452 µM) | 4 (≈ 5.83 µM) | 2 (≈ 2.92 µM) | 2 (≈ 2.92 µM) | 0.5 (≈ 0.729 µM) | 0.5 (≈ 0.729 µM) | 0.13 (≈ 0.19 µM) | MIC [21]: 0.25 µg/mL (≈ 0.365 µM); MIC [22]: 2 µg/mL (≈ 2.92 µM); MIC [23]: 4 µg/mL (≈ 5.83 µM); MIC [24]: 2 µg/mL (≈ 2.92 µM); MIC [25]: > 128 µg/mL |
| C=CCO/N=C(\C(=O)NC1C(=O)N2C(C(=O)[O-])=C(CSc3nc(N)cc(N)[n+]3CC)CSC12)c1csc(N)n1 (stereo not drawn) [Compound I-50] | 4 (≈ 6.76 µM) | 8 (≈ 13.5 µM) | 0.13 (≈ 0.22 µM) | 0.13 (≈ 0.22 µM) | 0.5 (≈ 0.845 µM) | 0.016 (≈ 0.027 µM) | 0.13 (≈ 0.22 µM) | 0.13 (≈ 0.22 µM) | ≤ 0.008 | ≤ 0.008 | ≤ 0.008 | 0.25 (≈ 0.423 µM) | 0.25 (≈ 0.423 µM) | ≤ 0.008 | 4 (≈ 6.76 µM) | 1 (≈ 1.69 µM) | 4 (≈ 6.76 µM) | 0.5 (≈ 0.845 µM) | 0.25 (≈ 0.423 µM) | 0.031 (≈ 0.0524 µM) | MIC [21]: 0.13 µg/mL (≈ 0.22 µM); MIC [22]: 0.13 µg/mL (≈ 0.22 µM); MIC [23]: 0.13 µg/mL (≈ 0.22 µM); MIC [24]: 0.063 µg/mL (≈ 0.106 µM); MIC [25]: 8 µg/mL (≈ 13.5 µM) |
| CC[n+]1c(N)cc(N)nc1SCC1=C(C(=O)[O-])N2C(=O)C(NC(=O)/C(=N\OC(C)(C)C(=O)O)c3nsc(N)n3)C2SC1 (stereo not drawn) [Compound I-27] | 8 (≈ 12.5 µM) | > 128 | 1 (≈ 1.57 µM) | 0.25 (≈ 0.391 µM) | 2 (≈ 3.13 µM) | 0.063 (≈ 0.0986 µM) | 0.13 (≈ 0.204 µM) | 0.13 (≈ 0.204 µM) | 0.063 (≈ 0.0986 µM) | 0.5 (≈ 0.783 µM) | ≤ 0.008 | 0.13 (≈ 0.204 µM) | 0.13 (≈ 0.204 µM) | ≤ 0.008 | 4 (≈ 6.26 µM) | 2 (≈ 3.13 µM) | 2 (≈ 3.13 µM) | 0.5 (≈ 0.783 µM) | 0.25 (≈ 0.391 µM) | 0.25 (≈ 0.391 µM) | MIC [21]: 0.13 µg/mL (≈ 0.204 µM); MIC [22]: 4 µg/mL (≈ 6.26 µM); MIC [23]: 8 µg/mL (≈ 12.5 µM); MIC [24]: 4 µg/mL (≈ 6.26 µM); MIC [25]: > 128 µg/mL |
| CO/N=C(\C(=O)NC1C(=O)N2C(C(=O)[O-])=C(CSc3nc(N)cc(N)[n+]3C)CSC12)c1nsc(N)n1 (stereo not drawn) [Compound I-24] | 2 (≈ 3.62 µM) | 32 (≈ 57.9 µM) | 0.25 (≈ 0.452 µM) | 0.13 (≈ 0.235 µM) | 1 (≈ 1.81 µM) | 0.063 (≈ 0.114 µM) | 0.13 (≈ 0.235 µM) | 0.13 (≈ 0.235 µM) | 0.031 (≈ 0.0561 µM) | 0.13 (≈ 0.235 µM) | 0.063 (≈ 0.114 µM) | 1 (≈ 1.81 µM) | 1 (≈ 1.81 µM) | 0.016 (≈ 0.029 µM) | 16 (≈ 29 µM) | 4 (≈ 7.24 µM) | 4 (≈ 7.24 µM) | 0.5 (≈ 0.905 µM) | 0.25 (≈ 0.452 µM) | 0.031 (≈ 0.0561 µM) | MIC [21]: 0.13 µg/mL (≈ 0.235 µM); MIC [22]: 0.5 µg/mL (≈ 0.905 µM); MIC [23]: 0.5 µg/mL (≈ 0.905 µM); MIC [24]: 0.25 µg/mL (≈ 0.452 µM); MIC [25]: 32 µg/mL (≈ 57.9 µM) |
